# According to PubChem BioAssay (NCI):
#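 In this assay, cells in 96-well plates receive the compound at five concentrations for 48 hours. Endpoints are linearly interpolated between the surrounding concentrations. TGI denotes the concentration required for complete inhibition of growth.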
# How the values were obtained:
# Assay in all cases: NCI tumour cell line growth inhibition, 48 h
# MDA-N = tested on: MDA-N
# HCT-116 colon = tested on: HCT-116 colon
# UACC-62 melanoma = tested on: UACC-62 melanoma
# OVCAR-4 ovarian = tested on: OVCAR-4 ovarian
# BT-549 breast = tested on: BT-549 breast
# IGROV1 ovarian = tested on: IGROV1 ovarian
# DU-145 prostate = tested on: DU-145 prostate
# M14 melanoma = tested on: M14 melanoma
# SF-268 CNS = tested on: SF-268 CNS
# MCF7 breast = tested on: MCF7 breast
# SF-295 CNS = tested on: SF-295 CNS
# MDA-MB-231 breast = tested on: MDA-MB-231 breast
# ACHN renal = tested on: ACHN renal
# OVCAR-5 ovarian = tested on: OVCAR-5 ovarian
# OVCAR-3 ovarian = tested on: OVCAR-3 ovarian
# SW-620 colon = tested on: SW-620 colon
# RXF 393 renal = tested on: RXF 393 renal
# HS 578T breast = tested on: HS 578T breast
# SK-OV-3 ovarian = tested on: SK-OV-3 ovarian
# KM12 colon = tested on: KM12 colon
# SNB-19 CNS = tested on: SNB-19 CNS
# NCI-H23 lung = tested on: NCI-H23 lung
# NCI-H460 lung = tested on: NCI-H460 lung
# SNB-75 CNS = tested on: SNB-75 CNS
# HCC-2998 colon = tested on: HCC-2998 colon
# CCRF-CEM leukemia = tested on: CCRF-CEM leukemia
# MALME-3M melanoma = tested on: MALME-3M melanoma
# NCI-H522 lung = tested on: NCI-H522 lung
# CAKI-1 renal = tested on: CAKI-1 renal
# NCI/ADR-RES ovarian = tested on: NCI/ADR-RES ovarian
# UACC-257 melanoma = tested on: UACC-257 melanoma
# PC-3 prostate = tested on: PC-3 prostate
# HL-60(TB) leukemia = tested on: HL-60(TB) leukemia
# 786-0 renal = tested on: 786-0 renal
# OVCAR-8 ovarian = tested on: OVCAR-8 ovarian
# TK-10 renal = tested on: TK-10 renal
# A498 renal = tested on: A498 renal
# HCT-15 colon = tested on: HCT-15 colon
# EKVX NSCLC = tested on: EKVX NSCLC
# SK-MEL-2 melanoma = tested on: SK-MEL-2 melanoma
# U251 CNS = tested on: U251 CNS
# A549 NSCLC = tested on: A549 NSCLC
# SN12C renal = tested on: SN12C renal
# HOP-62 NSCLC = tested on: HOP-62 NSCLC
# LOX IMVI melanoma = tested on: LOX IMVI melanoma
# HT29 colon = tested on: HT29 colon
# UO-31 renal = tested on: UO-31 renal
# T-47D breast = tested on: T-47D breast
# MDA-MB-435 = tested on: MDA-MB-435
# HOP-92 NSCLC = tested on: HOP-92 NSCLC
# SK-MEL-28 melanoma = tested on: SK-MEL-28 melanoma
# RPMI-8226 leukemia = tested on: RPMI-8226 leukemia
# COLO 205 colon = tested on: COLO 205 colon
# SF-539 CNS = tested on: SF-539 CNS
# NCI-H226 lung = tested on: NCI-H226 lung
# K-562 leukemia = tested on: K-562 leukemia
# MOLT-4 leukemia = tested on: MOLT-4 leukemia
smiles,measurement,setting,value
CN1C(=O)CN=C(c2ccccc2F)c2cc(N=C=S)ccc21,TGI,MDA-N,> 100 µM
same,TGI,HCT-116 colon,> 100 µM
same,TGI,UACC-62 melanoma,> 100 µM
same,TGI,OVCAR-4 ovarian,> 100 µM
same,TGI,BT-549 breast,> 100 µM
same,TGI,IGROV1 ovarian,> 100 µM
same,TGI,DU-145 prostate,> 100 µM
same,TGI,M14 melanoma,> 100 µM
same,TGI,SF-268 CNS,> 100 µM
same,TGI,MCF7 breast,> 100 µM
same,TGI,SF-295 CNS,> 100 µM
same,TGI,MDA-MB-231 breast,> 100 µM
same,TGI,ACHN renal,> 100 µM
same,TGI,OVCAR-5 ovarian,> 100 µM
same,TGI,OVCAR-3 ovarian,> 100 µM
same,TGI,SW-620 colon,> 100 µM
same,TGI,RXF 393 renal,87.7 µM
same,TGI,HS 578T breast,> 100 µM
same,TGI,SK-OV-3 ovarian,> 100 µM
same,TGI,KM12 colon,> 100 µM
same,TGI,SNB-19 CNS,> 100 µM
same,TGI,NCI-H23 lung,> 100 µM
same,TGI,NCI-H460 lung,> 100 µM
same,TGI,SNB-75 CNS,> 100 µM
same,TGI,HCC-2998 colon,> 100 µM
same,TGI,CCRF-CEM leukemia,> 100 µM
same,TGI,MALME-3M melanoma,> 100 µM
same,TGI,NCI-H522 lung,45.2 µM
same,TGI,CAKI-1 renal,25.2 µM
same,TGI,NCI/ADR-RES ovarian,> 100 µM
same,TGI,UACC-257 melanoma,> 100 µM
same,TGI,PC-3 prostate,> 100 µM
same,TGI,HL-60(TB) leukemia,> 100 µM
same,TGI,786-0 renal,> 100 µM
same,TGI,OVCAR-8 ovarian,> 100 µM
same,TGI,TK-10 renal,> 100 µM
same,TGI,A498 renal,> 100 µM
same,TGI,HCT-15 colon,> 100 µM
same,TGI,EKVX NSCLC,> 100 µM
same,TGI,SK-MEL-2 melanoma,> 100 µM
same,TGI,U251 CNS,> 100 µM
same,TGI,A549 NSCLC,> 100 µM
same,TGI,SN12C renal,> 100 µM
same,TGI,HOP-62 NSCLC,> 100 µM
same,TGI,LOX IMVI melanoma,> 100 µM
same,TGI,HT29 colon,> 100 µM
same,TGI,UO-31 renal,> 100 µM
same,TGI,T-47D breast,> 100 µM
same,TGI,MDA-MB-435,> 100 µM
same,TGI,HOP-92 NSCLC,> 100 µM
O=CN1CCN(C(=O)c2ccc(Cl)cc2)C1=S,TGI,MDA-N,31.5 µM
same,TGI,HCT-116 colon,34.8 µM
same,TGI,UACC-62 melanoma,29.3 µM
same,TGI,SK-MEL-28 melanoma,39.6 µM
same,TGI,OVCAR-4 ovarian,35.5 µM
same,TGI,RPMI-8226 leukemia,17.1 µM
same,TGI,BT-549 breast,69.2 µM
same,TGI,IGROV1 ovarian,28.5 µM
same,TGI,DU-145 prostate,29.1 µM
same,TGI,M14 melanoma,27.7 µM
same,TGI,SF-268 CNS,35.9 µM
same,TGI,MCF7 breast,11 µM
same,TGI,SF-295 CNS,76 µM
same,TGI,MDA-MB-231 breast,34.5 µM
same,TGI,ACHN renal,31 µM
same,TGI,OVCAR-5 ovarian,35.6 µM
same,TGI,COLO 205 colon,41.9 µM
same,TGI,OVCAR-3 ovarian,28.7 µM
same,TGI,SW-620 colon,36.5 µM
same,TGI,RXF 393 renal,31 µM
same,TGI,HS 578T breast,> 100 µM
same,TGI,SK-OV-3 ovarian,74.6 µM
same,TGI,SF-539 CNS,61.7 µM
same,TGI,NCI-H226 lung,80 µM
same,TGI,KM12 colon,25.2 µM
same,TGI,SNB-19 CNS,29.5 µM
same,TGI,NCI-H23 lung,53.6 µM
same,TGI,NCI-H460 lung,52 µM
same,TGI,SNB-75 CNS,36.8 µM
same,TGI,K-562 leukemia,39.6 µM
same,TGI,HCC-2998 colon,33.9 µM
same,TGI,CCRF-CEM leukemia,37.4 µM
same,TGI,MALME-3M melanoma,41.8 µM
same,TGI,NCI-H522 lung,31.2 µM
same,TGI,CAKI-1 renal,27 µM
same,TGI,NCI/ADR-RES ovarian,> 100 µM
same,TGI,UACC-257 melanoma,33.7 µM
same,TGI,PC-3 prostate,32.1 µM
same,TGI,HL-60(TB) leukemia,44.1 µM
same,TGI,786-0 renal,19.7 µM
same,TGI,MOLT-4 leukemia,48.2 µM
same,TGI,OVCAR-8 ovarian,31.3 µM
same,TGI,TK-10 renal,28.2 µM
same,TGI,A498 renal,29.3 µM
same,TGI,HCT-15 colon,55.8 µM
same,TGI,EKVX NSCLC,29 µM
same,TGI,SK-MEL-2 melanoma,36 µM
same,TGI,U251 CNS,28.2 µM
same,TGI,A549 NSCLC,28 µM
same,TGI,SN12C renal,28 µM
same,TGI,HOP-62 NSCLC,44 µM
same,TGI,LOX IMVI melanoma,24.5 µM
same,TGI,HT29 colon,33 µM
same,TGI,T-47D breast,36.4 µM
same,TGI,MDA-MB-435,28 µM
same,TGI,HOP-92 NSCLC,14.9 µM
